This note sets out measurements from patent publication EP0741709B1, “AROMATIC 2-AMINO-IMIDAZOLE DERIVATIVES AS ALPHA-2A ADRENOCEPTOR AGONISTS” (Allergan Sales, Inc., priority 1994, dated 1995).

Broadly, the Ki is the equilibrium dissociation constant of an inhibitor or competing ligand from its target. A low value points to a stronger hold on the target.

This assay deals with T1, rat α2B adrenoceptor (Rattus norvegicus, UniProt P19328).
T1 construct: expressed in transfected cells; host or cells: CHO (CHO-RNG)
T1 sequence (P19328 1-453): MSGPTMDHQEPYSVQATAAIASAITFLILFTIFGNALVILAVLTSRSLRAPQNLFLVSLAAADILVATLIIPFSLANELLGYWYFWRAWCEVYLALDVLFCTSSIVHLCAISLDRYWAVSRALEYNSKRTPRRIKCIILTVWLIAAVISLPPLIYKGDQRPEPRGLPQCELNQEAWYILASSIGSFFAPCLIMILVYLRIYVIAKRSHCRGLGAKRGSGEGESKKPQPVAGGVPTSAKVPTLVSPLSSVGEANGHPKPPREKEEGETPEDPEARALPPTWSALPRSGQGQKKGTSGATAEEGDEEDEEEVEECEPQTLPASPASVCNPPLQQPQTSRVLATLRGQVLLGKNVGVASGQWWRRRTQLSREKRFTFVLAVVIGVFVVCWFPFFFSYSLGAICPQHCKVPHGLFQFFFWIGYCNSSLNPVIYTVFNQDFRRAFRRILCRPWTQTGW
The experiment in a line: Receptor binding assay, [3H]rauwolscine, CHO-RNG cell membranes. Particulars: 22°C, 30 minutes. As for the experimental part:
(§1) Cell preparation: Chinese hamster ovary (CHO) cells expressing the human α2A and human α2C (CHO-C10 and CHO-C4 respectively) receptors and CHO cells (CHO-RNG) expressing the rat α2B adrenoceptor were grown to near confluence in Dulbecco's modified Eagle's medium supplemented with 10% fetal bovine serum using standard cell culture methods. Cells were harvested by scraping and placed into cold buffer of the following composition: 50 mM Tris-HCl, 5 mM EDTA, pH 7.4). Cells were then homogenized with a Polytron homogenizer for 2 X 10 sec at setting #7, and centrifuged for 20 minutes at 49,000 x g. The pellet fraction was washed (resuspended in Tris-HCl, pH 8 buffer and centrifuged for 15-20 minutes at 49,000 x g) 2 times and stored at -100°C until binding assay.
Binding Studies: The radioligands [^3H]rauwolscine (specific activity 80 Ci/mmol) and [^3H]prazosin (specific activity 76 Ci/mmol) were obtained from New England Nuclear, Boston, MA. Frozen membrane pellet was resuspended in 25 mM glycine/glycine, pH 7.5 and incubated with radioligand under the following conditions: CHO-C10, CHO-RNG, CHO-C4-[^3H]rauwolscine, 22°C, 30 minutes; RKC-[^3H]rauwolscine, 0°C, 120 minutes; and, HCC-[^3H]prazosin, 22°C, 30 minutes in a final volume of 500 ul. At the end of the incubation period, the samples were filtered through glass filters (Whatman GF/B) in a 96 well cell harvester and rapidly washed four times with 4 mL of iced-cold 50 mM Tris-HCl buffer. The filters were then oven dried and transferred to scintillation vials containing 10 mL of Beckman's Ready Protein® scintillation cocktail for counting. Specific binding defined by 10 uM phentolamine for competition studies were as follows: 2.4 nM [^3H]brimonidine-RbICB 62%; 2.4 nM [^3H]rauwolscine-RbICB 75%; 2 nM [^3H]rauwolscine-RbKc 88%; 0.3 nM [^3H] rauwolscine-CHO-C10 99%; 0.4 nM [^3H]rauwolscine-CHO-RNG 99%, 0.3 nM [^3H]prazosin 87%; and 1 nM [^3H]rauwolscine-CHO-C4 90%. Protein concentrations were determined with a protein assay kit from Bio Rad. Binding isotherms, equilibrium dissociation and affinity constants were analyzed and determined by the non-linear least squares curve fitting programs EBDA (BioSoft) or AccuFit Competition/Saturation by Beckman.
as §1, with “α2A (CHO-C10)” for “α2A”, “and” for “and human α2C (CHO-C10 and CHO-C4 respectively) receptors and CHO cells (CHO-RNG) expressing”, “α2B(CHO-RNG) human α2Aadrenoceptors” for “α2B adrenoceptor”
The radioligands [^3H)rauwolscine (specific activity 80 Ci/mmol) and [^3H]prazosin (specific activity 76 Ci/mmol) were obtained from New England Nuclear, Boston, MA. Frozen membrane pellet was resuspended in 25 mM glycine/glycine, pH 7.4 and incubated with radioligand under the following conditions: CHO-C10, CHO-RNG, CHO-C4-[^3H]rauwolscine, 22°C, 30 min.; and, HCC-[^3H]prazosin, 22°C, 30 minutes in a final volume of 500 ul. At the end of the incubation period, the samples were filtered through glass fiber filters (Whatman GF/B) in a 96 well cell harvester and rapidly washed four times with 4 mL of iced-cold 50 mM Tris-CHl buffer. The filters were then oven dried and transferred to scintillation vials containing 5 mL of Beckman's Ready Protein® scintillation cocktail for counting. Specific binding defined by 10 uM phentolamine for competition studies were as follows: 0.3 nM[^3H] rauwolscine-CHO-C10 99%; 0.4 nM [^3H]rauwolscine-CHO-RNG 99%, and 0.3 nM [^3H] prazosin-HCC 87%. Protein concentrations were determined with a protein assay kit from Bio Rad. […]
The molecule `Clc1cccc(Cl)c1Nc1ncc[nH]1` yielded a Ki of 587 nM.
The value for `Brc1ccccc1Nc1ncc[nH]1` was 1450 nM; that for `Clc1ccccc1Nc1ncc[nH]1` was 1940 nM.
The value for `COc1ccc(Nc2ncc[nH]2)c(C)c1` was 434 nM; that for `c1ccc(Nc2ncc[nH]2)cc1` was 1890 nM.
Molecule `Cc1ccccc1Nc1ncc[nH]1` gave a Ki of 561 nM.
The value for `Cc1c(Nc2ncc[nH]2)ccc2c1NCCO2` was 436 nM; that for `Cc1c(Nc2ncc[nH]2)ccc2nccnc12` was 1160 nM; that for `c1cc2c(c(Nc3ncc[nH]3)c1)CCCC2` was 152 nM.
The value for `Cc1c(Nc2ncc[nH]2)ccc2c1OCCO2` was 82 nM; that for `Brc1c(Nc2ncc[nH]2)ccc2nccnc12` was 12900 nM.
